According to patent US10030006B2, “Coumarin based Hsp90 inhibitors with urea and ether substituents” (University of Kansas, priority 2013, dated 2018):
Like-named read-outs stand apart in the source and are kept apart here.

How the values were obtained:
Type in all cases: cell-based
[1] = system: A-549; assay: Anti-proliferation assay, A-549
How it was run: (§1)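 Cells were seeded at 2000/well in Advanced DMEM/F12 with 10% FBS and attached overnight, then exposed to compound (1% DMSO final) for 72 h at 37 °C.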

[2] = system: PC-3; assay: Anti-proliferation assay, PC-3; conditions: Prostate Cancer
How it was run: as §1

[3] = system: DRO81-1; assay: Anti-proliferation assay, DRO81-1; conditions: Thyroid
How it was run: as §1

[4] = system: MDAMB231; assay: Anti-proliferation assay, MDAMB231; conditions: Tri-Neg
How it was run: as §1

[5] = system: MDA1986; assay: Anti-proliferation assay, MDA1986; conditions: HSNCC
How it was run: as §1

[6] = system: MCF-7 (estrogen receptor positive breast cancer cells); assay: Anti-proliferation assay (MTS/PMS, 72 h), MCF-7; conditions: Breast Cancer, read-out: IC50 MCF-3
[7] = system: HCT-116; assay: Anti-proliferation assay, HCT-116
How it was run: as §1

[8] = system: BCPAP; assay: Anti-proliferation assay, BCPAP; conditions: Thyroid
Description: Cells were maintained in a 1:1 mixture of Advanced DMEM/F12 (Gibco) supplemented with non-essential amino acids, L-glutamine (2 mM), streptomycin (500 μg/mL), penicillin (100 units/mL), and 10% FBS. Cells were grown to confluence in a humidified atmosphere (37° C., 5% CO2), seeded (2000/well, 100 μL) in 96-well plates, and allowed to attach overnight. Compound at varying concentrations in DMSO (1% DMSO final concentration) was added, and cells were returned to the incubator for 72 h. At 72 h, the number of viable cells was determined using an MTS/PMS cell proliferation kit (Promega) per the manufacturer's instructions. Cells incubated in 1% DMSO were used at 100% proliferation, and values were adjusted accordingly. IC50 values were calculated from separate experiments performed in triplicate using GraphPad Prism.

[9] = system: SKBr3 (estrogen receptor negative, Her2 over-expressing breast cancer cells); assay: Anti-proliferation assay (MTS/PMS, 72 h), SKBr3; conditions: Breast Cancer, read-out: IC50 SKBr3
[10] = system: JMAR; assay: Anti-proliferation assay, JMAR; conditions: HSNCC
How it was run: as §1

[11] = system: MRC5; assay: Anti-proliferation assay, MRC5 (normal); conditions: Homo sapiens, MRC5, Table 6, substituted phenyl ureas
How it was run: as §1

[12] = system: HMLE; assay: Anti-proliferation assay, HMLE (normal); conditions: HMLE, Table 6, substituted phenyl ureas
How it was run: as §1

[13] = Homo sapiens, A549, Table 6, substituted phenyl ureas
[14] = Homo sapiens, PC-3, Table 6, substituted phenyl ureas
[15] = Table 6, substituted phenyl ureas
[16] = Homo sapiens, MDA-MB-231, Table 6, substituted phenyl ureas
[17] = MDA1986, Table 6, substituted phenyl ureas
[18] = Homo sapiens, MCF7, Table 6, substituted phenyl ureas
[19] = Homo sapiens, HCT-116, Table 6, substituted phenyl ureas
[20] = Homo sapiens, BCPAP, Table 6, substituted phenyl ureas
[21] = Homo sapiens, SK-BR-3, Table 6, substituted phenyl ureas
[22] = JMAR, Table 6, substituted phenyl ureas

Cc1c(OC2CCN(C)CC2)ccc2cc(NC(=O)N3CCN(C)CC3)c(=O)oc12 [drawing 158] showed an IC50 ([1]; Table 9, non-aryl ureas) of 18300 ± 12000 nM, an IC50 ([2]; Table 9, non-aryl ureas) of 115000 nM and an IC50 ([3]; Table 9, non-aryl ureas) of over 25000 nM. For the same molecule, the IC50 ([4]; Table 9, non-aryl ureas) was over 25000 nM, the IC50 ([5]; Table 9, non-aryl ureas) was over 25000 nM and the IC50 ([6]; Table 9, non-aryl ureas) was 32100 ± 4780 nM. It also gave an IC50 ([7]; Table 9, non-aryl ureas) of over 100000 nM, an IC50 ([8]; Table 9, non-aryl ureas) of over 25000 nM and an IC50 ([9]; Table 9, non-aryl ureas) of over 50000 nM. It also gave an IC50 ([10]; Table 9, non-aryl ureas) of over 25000 nM.
Work on Cc1c(OC2CCN(C)CC2)ccc2cc(NC(=O)NCc3ccccc3)c(=O)oc12 [drawing 159] yielded an IC50 ([1]; Table 9, non-aryl ureas) of 280 ± 30 nM, an IC50 ([2]; Table 9, non-aryl ureas) of 870 ± 330 nM and an IC50 ([3]; Table 9, non-aryl ureas) of 14600 nM. The IC50 ([4]; Table 9, non-aryl ureas) was 7900 nM, the IC50 ([5]; Table 9, non-aryl ureas) was 14400 nM and the IC50 ([7]; Table 9, non-aryl ureas) was 660 ± 150 nM. The IC50 ([8]; Table 9, non-aryl ureas) was 45 nM and the IC50 ([10]; Table 9, non-aryl ureas) was over 25000 nM.
Molecule Cc1c(OC2CCN(C)CC2)ccc2cc(NC(=O)N(C)Cc3ccccc3)c(=O)oc12 [drawing 160] has an IC50 ([1]; Table 9, non-aryl ureas) of 138000 nM, an IC50 ([2]; Table 9, non-aryl ureas) of 28700 ± 24600 nM and an IC50 ([3]; Table 9, non-aryl ureas) of 19500 nM. For the same molecule, the IC50 ([4]; Table 9, non-aryl ureas) was over 25000 nM, the IC50 ([5]; Table 9, non-aryl ureas) was 13400 nM and the IC50 ([7]; Table 9, non-aryl ureas) was 183000 nM. For the same molecule, the IC50 ([8]; Table 9, non-aryl ureas) was 8.4 nM and the IC50 ([10]; Table 9, non-aryl ureas) was 7500 nM.
Cc1c(OC2CCN(C)CC2)ccc2cc(NC(=O)N(Cc3ccccc3)Cc3ccccc3)c(=O)oc12 [drawing 161] was tested, and the IC50 ([1]; Table 9, non-aryl ureas) was 3570 ± 550 nM, the IC50 ([2]; Table 9, non-aryl ureas) was 1270 ± 90 nM and the IC50 ([3]; Table 9, non-aryl ureas) was 1900 nM. It also gave an IC50 ([4]; Table 9, non-aryl ureas) of 2800 nM, an IC50 ([5]; Table 9, non-aryl ureas) of 3650 nM and an IC50 ([6]; Table 9, non-aryl ureas) of 3360 ± 160 nM. For the same molecule, the IC50 ([7]; Table 9, non-aryl ureas) was 5950 ± 2920 nM, the IC50 ([8]; Table 9, non-aryl ureas) was 1810 nM and the IC50 ([9]; Table 9, non-aryl ureas) was 1210 ± 20 nM. It also gave an IC50 ([10]; Table 9, non-aryl ureas) of 700 nM.
Cc1c(OC2CCN(C)CC2)ccc2cc(NC(=O)NC(c3ccccc3)c3ccccc3)c(=O)oc12 [drawing 162] was tested, and the IC50 ([1]; Table 9, non-aryl ureas) was 870 ± 210 nM, the IC50 ([2]; Table 9, non-aryl ureas) was 1120 ± 50 nM and the IC50 ([3]; Table 9, non-aryl ureas) was 1300 nM. For the same molecule, the IC50 ([4]; Table 9, non-aryl ureas) was 4300 nM, the IC50 ([5]; Table 9, non-aryl ureas) was 7100 nM and the IC50 ([6]; Table 9, non-aryl ureas) was 540 ± 10 nM. The IC50 ([7]; Table 9, non-aryl ureas) was 960 ± 160 nM, the IC50 ([8]; Table 9, non-aryl ureas) was 5760 nM and the IC50 ([9]; Table 9, non-aryl ureas) was 490 ± 70 nM. It also gave an IC50 ([10]; Table 9, non-aryl ureas) of 5900 nM.
Work on CCc1cccc(NC(=O)Nc2cc3ccc(OC4CCN(C)CC4)c(C)c3oc2=O)c1 [m-CH2CH3, 1-(3-ethylphenyl)-3-(8-methyl-7-((1-methylpiperidin-4-yl)oxy)-2-oxo-2H-chromen-3-yl)urea] yielded an IC50 [1, 13] of 400 nM, an IC50 [2, 14] of 410 nM and an IC50 [3, 15] of 670 nM. It also gave an IC50 [4, 16] of 1900 nM, an IC50 [5, 17] of 1320 nM and an IC50 [11] of 5300 nM. It also gave an IC50 [6, 18] of 500 nM, an IC50 [7, 19] of 340 nM and an IC50 [12] of over 25000 nM. For the same molecule, the IC50 [8, 20] was 5590 nM, the IC50 [9, 21] was 440 nM and the IC50 [10, 22] was 630 nM.
For Cc1cccc(NC(=O)Nc2cc3ccc(OC4CCN(C)CC4)c(C)c3oc2=O)c1 [m-CH3, 1-(8-methyl-7-((1-methylpiperidin-4-yl)oxy)-2-oxo-2H-chromen-3-yl)-3-(m-tolyl)urea], the IC50 [1, 13] was 1210 nM, the IC50 [2, 14] was 840 nM and the IC50 [3, 15] was 540 nM. For the same molecule, the IC50 [4, 16] was 3500 nM, the IC50 [5, 17] was 2020 nM and the IC50 [11] was 4300 nM. For the same molecule, the IC50 [6, 18] was 550 nM, the IC50 [7, 19] was 1110 nM and the IC50 [12] was 3100 nM. It also gave an IC50 [8, 20] of 3540 nM, an IC50 [9, 21] of 840 nM and an IC50 [10, 22] of 1800 nM.
With CC(=O)c1cccc(NC(=O)Nc2cc3ccc(OC4CCN(C)CC4)c(C)c3oc2=O)c1 [m-COCH3, 1-(3-acetylphenyl)-3-(8-methyl-7-((1-methylpiperidin-4-yl)oxy)-2-oxo-2H-chromen-3-yl)urea] the IC50 [1, 13] was 540 nM, the IC50 [2, 14] was 1230 nM and the IC50 [3, 15] was 13600 nM. It also gave an IC50 [4, 16] of 610 nM, an IC50 [5, 17] of 21000 nM and an IC50 [11] of over 25000 nM. The IC50 [6, 18] was 1170 nM, the IC50 [7, 19] was 720 nM and the IC50 [12] was 1900 nM. The IC50 [8, 20] was 270 nM, the IC50 [9, 21] was 830 nM and the IC50 [10, 22] was 15700 nM.
